The record followed here is US20250195508A1, “COMPOUNDS AND COMPOSITIONS FOR ANITMALARIAL THERAPEUTIC AND PROPHYLACTIC USE” (UNIVERSITY OF CENTRAL FLORIDA RESEARCH FOUNDATION, INC., priority 2022, published 2025).

The target in one series is recombinant human EPHA2 (Homo sapiens (Human), UniProt P29317). Kind of series: Z′-LYTE FRET-based in vitro biochemical kinase assay. The settings on record: recombinant human EPHA2 expressed in insect cells; read-out: Human EPHA2 IC50 (nM) ± SD. The method, then: (§1) Several analogs were synthesized based on the structure of TL5-135 for further study. […] For the data in Table 1, compounds were subjected to in vitro biochemical kinase assays done using recombinant human ephrin type-A receptor 2 (EPHA2) (expressed in insect cells) in a Z′-LYTE® FRET-based kinase assay. P. falciparum Dd2 EC50 was determined using the standard 72 hour SYBR Green I assay (Dd2 Proliferation Assay) as known in the art. […] The structures of compoundsTL5-134, TL5-139, and TL5-145 are shown below.
Chain of recombinant human EPHA2 (P29317 24-976): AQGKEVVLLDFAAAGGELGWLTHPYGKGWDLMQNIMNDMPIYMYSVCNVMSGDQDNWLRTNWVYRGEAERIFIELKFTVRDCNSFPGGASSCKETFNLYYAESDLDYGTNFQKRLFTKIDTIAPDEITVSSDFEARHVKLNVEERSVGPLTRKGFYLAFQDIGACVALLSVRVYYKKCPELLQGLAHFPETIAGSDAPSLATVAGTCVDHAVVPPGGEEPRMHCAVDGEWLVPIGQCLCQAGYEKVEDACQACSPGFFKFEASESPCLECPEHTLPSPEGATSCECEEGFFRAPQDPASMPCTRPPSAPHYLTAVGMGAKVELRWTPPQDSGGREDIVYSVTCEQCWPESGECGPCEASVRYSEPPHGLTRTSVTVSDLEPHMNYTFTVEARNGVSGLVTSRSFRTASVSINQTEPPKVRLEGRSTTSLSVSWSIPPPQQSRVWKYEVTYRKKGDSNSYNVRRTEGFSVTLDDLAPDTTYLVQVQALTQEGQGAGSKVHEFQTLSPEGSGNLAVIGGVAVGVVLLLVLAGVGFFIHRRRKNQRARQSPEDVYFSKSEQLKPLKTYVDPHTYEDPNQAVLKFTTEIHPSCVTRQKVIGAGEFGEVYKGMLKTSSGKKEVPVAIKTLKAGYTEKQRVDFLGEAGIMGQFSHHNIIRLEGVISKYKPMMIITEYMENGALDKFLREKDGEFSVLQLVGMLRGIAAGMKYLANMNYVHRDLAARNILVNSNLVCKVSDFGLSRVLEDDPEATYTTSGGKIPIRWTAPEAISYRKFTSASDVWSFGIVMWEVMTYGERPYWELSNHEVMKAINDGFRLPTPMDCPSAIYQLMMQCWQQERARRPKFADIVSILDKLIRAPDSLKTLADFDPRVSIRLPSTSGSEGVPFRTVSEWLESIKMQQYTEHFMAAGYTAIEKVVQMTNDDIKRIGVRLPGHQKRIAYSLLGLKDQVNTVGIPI
(§2) In vitro biochemical kinase assays were done using recombinant human EPHA2 (expressed in insect cells) in a Z′-LYTE® FRET-based kinase assay. P. falciparum Dd2 EC50 was determined using the standard 72 h SYBR Green I assay.

Series [1] concerns P. falciparum Dd2. Kind of series: 72 h SYBR Green I assay (Dd2 Proliferation Assay). The class given is cell-based. The settings on record: Plasmodium falciparum, DD2; SYBR Green I assay; Table 4; read-out: PfDd2 EC50 (nM) ± SD. The method, then: as §1, §2
Asynchronous blood stage P. falciparum Dd2 cultures were plated at 1% parasitemia and 1% hematocrit in a 96-well plate and incubated with serial dilutions of compound for 72 hours at 37° C. in 5% CO2. DMSO concentrations were kept at a sub-lethal percentage (<0.2%). Five micromolar chloroquine was used as a negative parasite growth control. Plates were then frozen at −80° C. and thawed, and 100 μL SYBR Green I-containing lysis buffer (20 mM Tris-HCl, 5 mM EDTA, 0.8% Triton X-100, 0.08% saponin, and 0.0001% SYBR Green I) was added to the wells. After incubation for 45 minutes at room temperature protected from light, fluorescence emission was read with a multimode microplate reader, at 485 nm excitation and 530 nm emission. Results were normalized using untreated and chloroquine-treated controls, and EC50 was determined with CDD Vault.
(§3) To establish the utility of kinase inhibitor compounds synthesized in the Gray laboratory as a source of novel antimalarial activities, the libraries (containing 1,100 compounds) were screened using the well-established SYBR Green I-based fluorescence assay as known in the art. This screen yielded 34 compounds with EC50<500 nM in the CQ^R Dd2 strain. These hits were subjected to counter-screening against human HepG2 cells using CellTiter 96® AQueous (Promega™) MTS-based cell proliferation assay to identify asexual and liver stage antiplasmodial hits.
(§4) P. falciparum Dd2 EC50 was determined using SYBR Green I assay. For the selectivity index ([…]) cytotoxicity was determined using CellTiter 96® AQueous MTS. The liver stage assay was performed using P. berghei luciferase expressing parasites. All assays were performed with technical quadruplicates and 3 biological replicates. Assays have a Z′ factor >0.7.

A further series deals with HepG2 human liver cell. The series is described as follows: CellTiter 96 AQueous MTS cytotoxicity counter-screen (selectivity index). Format: cell-based. The procedure:
as §3, §4
For orientation: A counterscreen serves to expose hits that act by an unwanted route or on another target.

Series [2] deals with P. berghei luciferase expressing parasites. Kind of series: Liver stage assay with luciferase expressing parasites. The class given is cell-based. The settings on record: Plasmodium berghei, read-out: Liver Stage EC50 (nM) ± SD. The method, then:
as §4

For a further series, the system named is P. falciparum strain Dd2. Kind of series: Stage specificity assay. To be noted: for Stage specific action, treated at early ring stage: 400 nM (5×EC50) at 6 hours post infection for 12 hours. The class given is cell-based. The method, then:
Asexual stage P. falciparum cultures were synchronized by MACS magnetic column, followed 3 hours later by treatment with 5% sorbitol to select for rings. Six hours after invasion, parasites were plated onto a 96-well plate at 1% parasitemia and 1% hematocrit, maintained at 37° C. in 5% CO2, and compound was added at 5×EC50 to the 6 HPI wells. Every 12 hours, until reinvaded rings (54 HPI), thin blood smear slides for Giemsa-stain were taken, and samples were washed and fixed in 4% paraformaldehyde in PBS with 0.04% glutaraldehyde. At the conclusion of the timepoints, all samples were permeabilized with 0.25% Triton X-100 before being treated with 50 μg/mL RNase A and stained with 500 nM YOYO-1. Samples were then washed, and flow cytometric analysis was performed with a CytoFLEX S™, collecting 100,000 events per sample. Analysis was performed with FlowJo™ software Version 10.
The stage specific action of the prioritized hits was determined as follows. Synchronized cultures of P. falciparum strain Dd2 were exposed to 400 nM (5×EC50) compound at 6 hours post infection for 12 hours and fixed samples labeled with YOYO-1 dye were analyzed by flow cytometry and microscopy using Giemsa-stained thin smears.

The test system of series [3] is P. falciparum Dd2. The series is described as follows: Rate of killing assay. To be noted: 10×EC50, 12-hour exposure then wash off. The class given is cell-based. The method, then: Asynchronous P. falciparum Dd2 cultures were plated at 1% parasitemia, 4% hematocrit into a 24-well plate, incubated at 37° C. in 5% CO2. Wells were treated with 10×EC50 of compound for 12, 24, or 48 hours before the compound was removed. Every 24 hours thereafter for 4 days total, culture samples were washed in 0.5% BSA and stained with 1×SYBR Green I and 60 μM MitoTracker Deep Red FM for 20 minutes at 37° C. After another wash in 0.5% BSA, samples were resuspended in PBS and analyzed via flow cytometry with a CytoFLEX S™, with 100,000 events recorded per sample. For gating, the following controls were used: uninfected RBCs, untreated culture, DHA-treated culture, and untreated culture without MitoTracker stain. Viable parasite percentage was determined by finding the fraction of SYBR Green/MitoTracker double positive cells from the total events. Analysis was performed with FlowJo software Version 10.
Asynchronous cultures of P. falciparum Dd2 parasites were treated with 10×EC50 of the indicated compound for 12 hours prior to compound wash off. Flow cytometry with SYBR Green I (nuclear dye) and Mitotracker Deep Red FM (mitochondria staining) was done after compound wash-off every 24 hours after for […] (100,000 events/sample) to track parasitemia (data from 3 biological replicates±SEM).

A short description of the next series: in vitro. The class given is in vitro ADME. The settings on record: mouse liver microsomes; read-out: t1/2 in mouse liver microsomes. (In general: Microsomes from liver hold many membrane-bound enzymes, among them those of drug oxidation.)

For the molecule `CCN1CCN(Cc2ccc(NC(=O)c3cc(Cl)cc(NC(=O)c4cncc(-c5cccs5)c4)c3)cc2C(F)(F)F)CC1` [TL5-135], at recombinant human EPHA2, the concentration for half-maximal inhibition (IC50) (commonly the midpoint of a concentration-inhibition curve) is above 10000 nM. For the same molecule, the EC50 (as a rule, the concentration giving half of the maximal effect) is 80 ± 8 nM in the series on P. falciparum Dd2 [1] and 108 ± 35 nM in series [2]. The “Selectivity Index (SI)” value in the series on HepG2 human liver cell is listed as 116. In addition, the “Stage specific action, treated at early ring stage” value was “blocks ring to trophozoite maturation” in the series on P. falciparum strain Dd2 and “block ring to trophozoite maturation” with P. falciparum strain Dd2 (listed as TL-135). The “Stage specific action, added at trophozoite and schizont stages” value in the series on P. falciparum strain Dd2 (data not shown) is on record as “blocks maturation of asexual parasites”. Moreover, the Killing profile result is given as “pronounced irreversible killing” in the series with P. falciparum Dd2 [3] and “exhibited a killing effect” with P. falciparum Dd2 [3] (listed as TL-135). In addition, the half-life in the series “in vitro” was found to be 1.32 h.
